Here are results for one compound from patent publication US12622911B2, “Methods and compositions for the treatment of pulmonary fibrosis using volasertib” (Children's Hospital Medical Center, priority 2021, dated 2026).

For series [1], the target named is PLK1 (Homo sapiens, UniProt P53350). Particulars: cited from earlier work.
Series [2] deals with WT1-MYCN-PLK1 axis in IPF fibroblasts. Briefly: PLK1, MYCN and WT1 protein levels in IPF fibroblast lysates by western blot. In kind it is cell-based, human. Particulars: volasertib 1 μM for 48 hours, western blot normalized to GAPDH, FIG. 17. As to the method:
FIG. 17. Volasertib treatment attenuates the WT1-MYCN-PLK1 axis in IPF fibroblasts. IPF fibroblasts were treated with vehicle or volasertib (1 μM) for 48 hours and measured PLK1, MYCN and WT1 protein levels in cell lysates using western blots and normalized to GAPDH. *P<0.05.
(§1) Pharmacological inhibition of PLK1 attenuates the WT1-MYCN-PLK1 axis. […] To determine in vivo therapeutic effects of volasertib, TGFα mice were treated simultaneously with volasertib (30 mg/kg; QD) and Dox for five days, a period that leads to activation of WT1, MYCN and PLK1 in fibroblasts. […] Together, in vivo studies have established that inhibiting PLK1 is sufficient to attenuate the WT1-MYCN-PLK1 axis involved in fibroblast activation and pulmonary fibrosis.
On the technique in general: Immunoblotting shows a protein as a band on a membrane.

In series [3] the test system is IPF fibroblasts. Briefly: CDK4 gene expression in IPF fibroblasts by RT-PCR. In kind it is cell-based, human. Particulars: vehicle or volasertib for 16 hours, FIG. 20.
The test system of series [4] is severe fibrotic lung disease. Briefly: Therapeutic efficacy against severe fibrotic lung disease in two alternative mouse models (TGFα transgenic, repeated bleomycin). Particulars: compared to FDA-approved nintedanib therapy. In kind it is in vivo. An excerpt:
WT1-driven anti-apoptotic genes (BCL3, BCL2L1, etc.), MYCN, and PLK1 were previously unknown to have a role in the pathogenesis of lung scarring, in fibroproliferation, FMT, survival, and ECM production. […] A novel clinical application for volasertib in the area of pulmonary fibrosis may include volasertib therapy to prevent progression or reverse established fibrotic lung disease. Applicant's studies utilize a novel transgenic mouse model in which the pro-fibrotic growth factor TGFα is selectively and temporally overexpressed in the lung epithelium, resulting in progressive subpleural scarring, similar to the pattern seen in human IPF, and an alternative mouse model of fibrosis using repeated doses of bleomycin. Applicant's data provide compelling support that inhibiting the MYCN-PLK1 axis may be effective in arresting fibrotic lung remodeling, and may be used in patients with pulmonary fibrosis.

The test system of series [5] is TGFα-induced pulmonary fibrosis. Briefly: TGFα-induced pulmonary fibrosis in TGFα mice on Dox, lung gene expression. It counts as in vivo. Particulars: volasertib 30 mg/kg QD with Dox for five days.
Description: FIG. 18. In vivo inhibition of PLK1 with volasertib attenuates ECM gene expression during TGFα-induced pulmonary fibrosis.
FIG. 19. In vivo inhibition of PLK1 with volasertib attenuates MYCN and PLK1 during TGFα induced pulmonary fibrosis.
FIG. 21. In vivo inhibition with volasertib attenuates ECM gene expression during TGFα-induced pulmonary fibrosis. *P<0.05.
as §1

The nature of series [6]: H&E stainings for toxicity in volasertib-treated TGFα mice. Particulars: at the doses tested (30 mg/kg QD, five days), data not shown. It counts as in vivo. How it is done:
as §1

In series [7] the test system is IPF fibroblasts. Briefly: ECM-associated gene transcripts in IPF fibroblasts by RT-PCR. Particulars: vehicle or volasertib for 16 hours, FIG. 16. It counts as cell-based, human. As to the method: FIG. 16. Inhibition of PLK1 using volasertib attenuates ECM gene expression. IPF fibroblasts were treated with vehicle or volasertib for 16 hours and ECM-associated gene transcripts Col1α, Col3α1, FN1, and αSMA) were measured using RT-PCR. *p<0.05.
as §1

Sequence of PLK1 (P53350 whole entry, species assumed): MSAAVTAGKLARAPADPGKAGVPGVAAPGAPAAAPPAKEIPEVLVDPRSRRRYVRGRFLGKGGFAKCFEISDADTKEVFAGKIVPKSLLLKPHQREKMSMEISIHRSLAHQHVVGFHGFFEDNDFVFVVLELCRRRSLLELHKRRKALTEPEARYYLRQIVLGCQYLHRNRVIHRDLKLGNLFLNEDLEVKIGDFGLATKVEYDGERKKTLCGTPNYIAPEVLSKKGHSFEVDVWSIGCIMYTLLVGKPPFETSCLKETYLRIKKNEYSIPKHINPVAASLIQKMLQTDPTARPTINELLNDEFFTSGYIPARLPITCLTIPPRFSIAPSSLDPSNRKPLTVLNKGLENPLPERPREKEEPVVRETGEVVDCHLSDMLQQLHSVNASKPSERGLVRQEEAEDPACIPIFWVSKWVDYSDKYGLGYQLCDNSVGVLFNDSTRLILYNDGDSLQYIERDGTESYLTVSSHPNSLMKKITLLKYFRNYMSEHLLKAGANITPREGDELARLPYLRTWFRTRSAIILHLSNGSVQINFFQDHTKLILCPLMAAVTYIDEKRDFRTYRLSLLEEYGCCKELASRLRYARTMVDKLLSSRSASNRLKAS

In the case of `CC[C@@H]1C(=O)N(C)c2cnc(Nc3ccc(C(=O)N[C@H]4CC[C@H](N5CCN(CC6CC6)CC5)CC4)cc3OC)nc2N1C(C)C` [volasertib, N-[trans-4-[4-(cyclopropylmethyl)-1-piperazinyl]cyclohexyl]-4-[[(7R)-7-ethyl-5,6,7,8-tetrahydro-5-methyl-8-(1-methylethyl)-6-oxo-2-pteridinyl]amino]-3-methoxy-benzamide], in series [1], the “binds and inhibits PLK1” value is listed as “at nanomolar doses”. For the same compound, the “MYCN, WT1 and PLK1 levels” value in series [2] was “sufficient to attenuate MYCN, WT1 and PLK1 levels”. Moreover, in series [3], the CDK4 gene expression entry is “attenuates CDK4 gene expression”. Also, the “therapeutic efficacy against severe fibrotic lung disease” value in series [4] was “demonstrated therapeutic efficacy”. The “MYCN and PLK1 levels in lungs” value in series [5] (FIG. 19) is “able to attenuate both MYCN and PLK1 levels”. The “ECM gene expression including Col1α1, Col3a1, and FN1” value in series [5] (vs vehicle-treated fibrosis controls, FIG. 18) is “attenuated ECM gene expression”. The “toxicity by H&E stainings” value in series [6] is listed as “no toxicity”. In series [7], the “ECM gene expression (Col1α, Col3α1, FN1, αSMA transcripts)” value was “sufficient to attenuate ECM gene expression”.
